From patent US12390437B2, “Itaconic acid derivatives and uses thereof intreating an inflammatory disease or a disease associated with an undesirable immune response” (Sitryx Therapeutics Limited, priority 2019, dated 2025)

tested on: hepatocytes; assay: Hepatocyte stability assay (mouse); format: in vitro ADME; details: 10 μM compound, 0.5×10^6 cells/mL, 60 minutes
Description: (§1) Defrosted cryo-preserved hepatocytes (viability >70%) are used to determine the metabolic stability of a compound via calculation of intrinsic clearance (Clint; a measure of the removal of a compound from the liver in the absence of blood flow and cell binding). Clearance data are particularly important for in vitro work as they can be used in combination with in vivo data to predict the half-life and oral bioavailability of a drug.
(§2) The metabolic stability in hepatocytes assay involves a time-dependent reaction using both positive and negative controls. The cells must be pre-incubated at 37° C. then spiked with test compound (and positive control); samples taken at pre-determined time intervals are analysed to monitor the change in concentration of the initial drug compound over 60 minutes. A buffer incubation reaction (with no hepatocytes present) acts as a negative control and two cocktail solutions, containing compounds with known high and low clearance values (verapamil/7-hydroxycoumarin and propranolol/diltiazem), act as positive controls. • 1. The assay is run with a cell concentration of 0.5×10^6 cells/mL in Leibovitz buffer. • 2. All compounds and controls are run in duplicate. • 3. Compound concentration is 10 μM. • 4. All compounds and controls are incubated with both cells and buffer to show turnover is due to hepatic metabolism. • 5. All wells on the incubation plate will have 326.7 μL of either cells or buffer added. • 6. Prior to assay, cell and buffer-only incubation plates are preincubated for 10 mins at 37° C. • 7. The assay is initiated by adding compounds, 3.3 μL of 1 mM in 10% DMSO-90% Buffer; final DMSO concentration is 0.1%. • 8. Samples are taken at regular timepoints (0, 5, 10, 20, 40, 60 min) until 60 mins. • 9. Sample volume is 40 μL and it is added to 160 μL of crash solvent (acetonitrile with internal standard) and stored on ice. • 10. At the end of the assay, the crash plates are centrifuged at 3500 rpm for 20 mins at 4° C. • 11. 80 μL of clear supernatant is removed and mixed with 80 μL of deionised water before being analysed by LC-MS/MS.
(§3) Raw LC-MS/MS data are exported to, and analysed in, Microsoft Excel for determination of intrinsic clearance. The percentage remaining of a compound is monitored using the peak area of the initial concentration as 100%. Intrinsic clearance and half-life values are calculated using a graph of the natural log of percentage remaining versus the time of reaction in minutes. Half-life (min) and intrinsic clearance (Clint in μL min^−1 10^−6 cells) values are calculated using the gradient of the graph (the elimination rate constant, k) and Equations 1 and 2.

SMILES | CIint (μL min^−1 10^−6 cells)
C=C(CC(=O)OC1CCCCC1)C(=O)OCCC(=O)O [Example 87, 3-((4-(cyclohexyloxy)-2-methylene-4-oxobutanoyl)oxy)propanoic acid] | 21 μL min^−1 10^−6 cells
C=C(CC(=O)O[C@H](C)CCCCCC)C(=O)OCCC(=O)O [Example 88, (R)-3-((2-methylene-4-(octan-2-yloxy)-4-oxobutanoyl)oxy)propanoic acid] | 297 μL min^−1 10^−6 cells
C=C(CC(=O)OC1CCCCCCC1)C(=O)OCc1nnn[nH]1 [Example 134, 1-((1H-tetrazol-5-yl)methyl) 4-cyclooctyl 2-methylenesuccinate] | 256 μL min^−1 10^−6 cells
C=C(CC(=O)OCCCCCC)C(=O)OCC(=O)O [Example 94, 2-((4-(hexyloxy)-2-methylene-4-oxobutanoyl)oxy)acetic acid] | 60 μL min^−1 10^−6 cells
C=C(CC(=O)OCCCCCCCC)C(=O)OCC(=O)O [Example 49, 2-((2-methylene-4-(octyloxy)-4-oxobutanoyl)oxy)acetic acid] | 138 μL min^−1 10^−6 cells
C=C(CC(=O)OC1CCCCC1)C(=O)OCC(=O)O [Example 91, 2-((4-(cyclohexyloxy)-2-methylene-4-oxobutanoyl)oxy)acetic acid] | 29 μL min^−1 10^−6 cells
C=C(CC(=O)OCCCCCCCC)C(=O)OCCC(=O)O [Example 80, 3-((2-methylene-4-(octyloxy)-4-oxobutanoyl)oxy)propanoic Acid] | 158 μL min^−1 10^−6 cells
C=C(CC(=O)O[C@@H](C)CCCCCC)C(=O)OCc1nn[nH]n1 [Example 164, (S)-1-(2H-tetrazol-5-yl)methyl 4-octan-2-yl 2-methylenesuccinate] | 259 μL min^−1 10^−6 cells
C=C(CC(=O)O[C@@H](C)CCCCCC)C(=O)OCC(=O)O [Example 89, (S)-2-((2-methylene-4-(octan-2-yloxy)-4-oxobutanoyl)oxy)acetic acid] | 198 μL min^−1 10^−6 cells

tested on: not listed separately; assay: Hepatocyte stability assay (mouse); format: in vitro ADME; details: cryopreserved hepatocytes, 10 μM compound, 0.5×10^6 cells/mL, 60 minutes, read-out: T½
Description: as §1, §2, §3

SMILES | half-life at 10 μM
C=C(CC(=O)OC1CCCCC1)C(=O)OCCC(=O)O [Example 87, 3-((4-(cyclohexyloxy)-2-methylene-4-oxobutanoyl)oxy)propanoic acid] | 65 min
C=C(CC(=O)O[C@H](C)CCCCCC)C(=O)OCCC(=O)O [Example 88, (R)-3-((2-methylene-4-(octan-2-yloxy)-4-oxobutanoyl)oxy)propanoic acid] | 7 min
C=C(CC(=O)OC1CCCCCCC1)C(=O)OCc1nnn[nH]1 [Example 134, 1-((1H-tetrazol-5-yl)methyl) 4-cyclooctyl 2-methylenesuccinate] | 7 min
C=C(CC(=O)OCCCCCC)C(=O)OCC(=O)O [Example 94, 2-((4-(hexyloxy)-2-methylene-4-oxobutanoyl)oxy)acetic acid] | 23 min
C=C(CC(=O)OCCCCCCCC)C(=O)OCC(=O)O [Example 49, 2-((2-methylene-4-(octyloxy)-4-oxobutanoyl)oxy)acetic acid] | 10 min
C=C(CC(=O)OC1CCCCC1)C(=O)OCC(=O)O [Example 91, 2-((4-(cyclohexyloxy)-2-methylene-4-oxobutanoyl)oxy)acetic acid] | 48 min
C=C(CC(=O)OCCCCCCCC)C(=O)OCCC(=O)O [Example 80, 3-((2-methylene-4-(octyloxy)-4-oxobutanoyl)oxy)propanoic Acid] | 9 min
C=C(CC(=O)O[C@@H](C)CCCCCC)C(=O)OCc1nn[nH]n1 [Example 164, (S)-1-(2H-tetrazol-5-yl)methyl 4-octan-2-yl 2-methylenesuccinate] | 5 min
C=C(CC(=O)O[C@@H](C)CCCCCC)C(=O)OCC(=O)O [Example 89, (S)-2-((2-methylene-4-(octan-2-yloxy)-4-oxobutanoyl)oxy)acetic acid] | 13 min

tested on: hepatocytes; assay: Hepatocyte stability assay (human); format: in vitro ADME; details: 10 μM compound, 0.5×10^6 cells/mL, 60 minutes
Description: as §1, §2, §3

SMILES | CIint (μL min^−1 10^−6 cells)
C=C(CC(=O)OC1CCCCC1)C(=O)OCCC(=O)O [Example 87, 3-((4-(cyclohexyloxy)-2-methylene-4-oxobutanoyl)oxy)propanoic acid] | 11 μL min^−1 10^−6 cells
C=C(CC(=O)O[C@H](C)CCCCCC)C(=O)OCCC(=O)O [Example 88, (R)-3-((2-methylene-4-(octan-2-yloxy)-4-oxobutanoyl)oxy)propanoic acid] | 134 μL min^−1 10^−6 cells
C=C(CC(=O)OC1CCCCCCC1)C(=O)OCc1nnn[nH]1 [Example 134, 1-((1H-tetrazol-5-yl)methyl) 4-cyclooctyl 2-methylenesuccinate] | 27 μL min^−1 10^−6 cells
C=C(CC(=O)OCCCCCC)C(=O)OCC(=O)O [Example 94, 2-((4-(hexyloxy)-2-methylene-4-oxobutanoyl)oxy)acetic acid] | 16 μL min^−1 10^−6 cells
C=C(CC(=O)OCCCCCCCC)C(=O)OCC(=O)O [Example 49, 2-((2-methylene-4-(octyloxy)-4-oxobutanoyl)oxy)acetic acid] | 109 μL min^−1 10^−6 cells
C=C(CC(=O)OC1CCCCC1)C(=O)OCC(=O)O [Example 91, 2-((4-(cyclohexyloxy)-2-methylene-4-oxobutanoyl)oxy)acetic acid] | 4 μL min^−1 10^−6 cells
C=C(CC(=O)OCCCCCCCC)C(=O)OCCC(=O)O [Example 80, 3-((2-methylene-4-(octyloxy)-4-oxobutanoyl)oxy)propanoic Acid] | 243 μL min^−1 10^−6 cells
C=C(CC(=O)O[C@@H](C)CCCCCC)C(=O)OCc1nn[nH]n1 [Example 164, (S)-1-(2H-tetrazol-5-yl)methyl 4-octan-2-yl 2-methylenesuccinate] | 42 μL min^−1 10^−6 cells
C=C(CC(=O)O[C@@H](C)CCCCCC)C(=O)OCC(=O)O [Example 89, (S)-2-((2-methylene-4-(octan-2-yloxy)-4-oxobutanoyl)oxy)acetic acid] | 29 μL min^−1 10^−6 cells

tested on: not listed separately; assay: Hepatocyte stability assay (human); format: in vitro ADME; details: cryopreserved hepatocytes, 10 μM compound, 0.5×10^6 cells/mL, 60 minutes, read-out: T½
Description: as §1, §2, §3

SMILES | half-life at 10 μM
C=C(CC(=O)OC1CCCCC1)C(=O)OCCC(=O)O [Example 87, 3-((4-(cyclohexyloxy)-2-methylene-4-oxobutanoyl)oxy)propanoic acid] | 136 min
C=C(CC(=O)O[C@H](C)CCCCCC)C(=O)OCCC(=O)O [Example 88, (R)-3-((2-methylene-4-(octan-2-yloxy)-4-oxobutanoyl)oxy)propanoic acid] | 13 min
C=C(CC(=O)OC1CCCCCCC1)C(=O)OCc1nnn[nH]1 [Example 134, 1-((1H-tetrazol-5-yl)methyl) 4-cyclooctyl 2-methylenesuccinate] | 53 min
C=C(CC(=O)OCCCCCC)C(=O)OCC(=O)O [Example 94, 2-((4-(hexyloxy)-2-methylene-4-oxobutanoyl)oxy)acetic acid] | 85 min
C=C(CC(=O)OCCCCCCCC)C(=O)OCC(=O)O [Example 49, 2-((2-methylene-4-(octyloxy)-4-oxobutanoyl)oxy)acetic acid] | 13 min
C=C(CC(=O)OC1CCCCC1)C(=O)OCC(=O)O [Example 91, 2-((4-(cyclohexyloxy)-2-methylene-4-oxobutanoyl)oxy)acetic acid] | 352 min
C=C(CC(=O)OCCCCCCCC)C(=O)OCCC(=O)O [Example 80, 3-((2-methylene-4-(octyloxy)-4-oxobutanoyl)oxy)propanoic Acid] | 6 min
C=C(CC(=O)O[C@@H](C)CCCCCC)C(=O)OCc1nn[nH]n1 [Example 164, (S)-1-(2H-tetrazol-5-yl)methyl 4-octan-2-yl 2-methylenesuccinate] | 33 min
C=C(CC(=O)O[C@@H](C)CCCCCC)C(=O)OCC(=O)O [Example 89, (S)-2-((2-methylene-4-(octan-2-yloxy)-4-oxobutanoyl)oxy)acetic acid] | 49 min

tested on: NRF2; assay: NRF2 +/-GSH activation assay (DiscoverX PathHunter NRF2 translocation kit, U2OS cells); format: cell-based; details: Homo sapiens, U2OS; normalised to dimethyl fumarate 'High' control; GSH condition not stated in Table 5; read-out: NRF2 activation Emax
In short: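 Percent activation, normalised to dimethyl fumarate (high) and vehicle (low) controls, was fitted for EC50 after 6 hours treatment of U2OS PathHunter cells. In the +GSH arm compounds were first pre-incubated 30 minutes in 6 mM working GSH; NRF2 translocation read by chemiluminescent complementation.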

SMILES | Emax
C=C(CC(=O)OC1CCCCC1)C(=O)OCCC(=O)O [Example 87, 3-((4-(cyclohexyloxy)-2-methylene-4-oxobutanoyl)oxy)propanoic acid] | 113%
C=C(CC(=O)O[C@H](C)CCCCCC)C(=O)OCCC(=O)O [Example 88, (R)-3-((2-methylene-4-(octan-2-yloxy)-4-oxobutanoyl)oxy)propanoic acid] | 139%
C=C(CC(=O)OC1CCCCCCC1)C(=O)OCc1nnn[nH]1 [Example 134, 1-((1H-tetrazol-5-yl)methyl) 4-cyclooctyl 2-methylenesuccinate] | 183%
C=C(CC(=O)OCCCCCC)C(=O)OCC(=O)O [Example 94, 2-((4-(hexyloxy)-2-methylene-4-oxobutanoyl)oxy)acetic acid] | 193%
C=C(CC(=O)OCCCCCCCC)C(=O)OCC(=O)O [Example 49, 2-((2-methylene-4-(octyloxy)-4-oxobutanoyl)oxy)acetic acid] | 232%
C=C(CC(=O)OC1CCCCC1)C(=O)OCC(=O)O [Example 91, 2-((4-(cyclohexyloxy)-2-methylene-4-oxobutanoyl)oxy)acetic acid] | 73%
C=C(CC(=O)OCCCCCCCC)C(=O)OCCC(=O)O [Example 80, 3-((2-methylene-4-(octyloxy)-4-oxobutanoyl)oxy)propanoic Acid] | 229%
C=C(CC(=O)O[C@@H](C)CCCCCC)C(=O)OCc1nn[nH]n1 [Example 164, (S)-1-(2H-tetrazol-5-yl)methyl 4-octan-2-yl 2-methylenesuccinate] | 168%
C=C(CC(=O)O[C@@H](C)CCCCCC)C(=O)OCC(=O)O [Example 89, (S)-2-((2-methylene-4-(octan-2-yloxy)-4-oxobutanoyl)oxy)acetic acid] | 238%

same assay, conditions: Homo sapiens; U2OS PathHunter cells, 6 hours; GSH condition not stated in Table 5; read-out: NRF2 activation EC50

SMILES | EC50
C=C(CC(=O)OC1CCCCC1)C(=O)OCCC(=O)O [Example 87, 3-((4-(cyclohexyloxy)-2-methylene-4-oxobutanoyl)oxy)propanoic acid] | 34.2 µM
C=C(CC(=O)O[C@H](C)CCCCCC)C(=O)OCCC(=O)O [Example 88, (R)-3-((2-methylene-4-(octan-2-yloxy)-4-oxobutanoyl)oxy)propanoic acid] | 3.2 µM
C=C(CC(=O)OC1CCCCCCC1)C(=O)OCc1nnn[nH]1 [Example 134, 1-((1H-tetrazol-5-yl)methyl) 4-cyclooctyl 2-methylenesuccinate] | 20 µM
C=C(CC(=O)OCCCCCC)C(=O)OCC(=O)O [Example 94, 2-((4-(hexyloxy)-2-methylene-4-oxobutanoyl)oxy)acetic acid] | 22.2 µM
C=C(CC(=O)OCCCCCCCC)C(=O)OCC(=O)O [Example 49, 2-((2-methylene-4-(octyloxy)-4-oxobutanoyl)oxy)acetic acid] | 15.8 µM
C=C(CC(=O)OC1CCCCC1)C(=O)OCC(=O)O [Example 91, 2-((4-(cyclohexyloxy)-2-methylene-4-oxobutanoyl)oxy)acetic acid] | 10.1 µM
C=C(CC(=O)OCCCCCCCC)C(=O)OCCC(=O)O [Example 80, 3-((2-methylene-4-(octyloxy)-4-oxobutanoyl)oxy)propanoic Acid] | 21.5 µM
C=C(CC(=O)O[C@@H](C)CCCCCC)C(=O)OCc1nn[nH]n1 [Example 164, (S)-1-(2H-tetrazol-5-yl)methyl 4-octan-2-yl 2-methylenesuccinate] | 4.9 µM
C=C(CC(=O)O[C@@H](C)CCCCCC)C(=O)OCC(=O)O [Example 89, (S)-2-((2-methylene-4-(octan-2-yloxy)-4-oxobutanoyl)oxy)acetic acid] | 22.4 µM
